System: Human Pancreatic Carcinoma Cell Line (BXPC-3)
Experiment: Tumor cell proliferation assay (MTT), BXPC-3
Format: cell-based
Conditions: for inhibition at 10 µM: concentration of 10^−5 mol/L, preliminary screening, 72 hours, read-out: Inhibition rate % BXPC-3; for IC50: secondary screening, 48 hours
Excerpt: The assay used generally is the blue tetrazolium bromide (MTT) method. […] The amount of formazan can be detected by the microplate reader through the absorption value at 570 nm. The amount of formazan product generated is proportional to the number of living cells in the sample, so the OD value may reflect the number of living cells and the ability of a test drug to inhibit or kill cells. The MTT assay may be used in determining the ability of different compounds of the present invention to inhibit one or more cancer cells proliferation. Similar assays can be designed along the same lines for any cancer cell using techniques well known in the art.
The assay used generally is the blue tetrazolium bromide (MTT) method. […] Intracellular purple formazan salt crystals can be solved in DMSO and the absorption value at 570 nm is detected by the microplate reader, then the number of living cells can be detected indirectly. So MTT assay may be used to determine the ability of a compound of the present invention to inhibit cell proliferation. Similar assays can be designed along the same lines for any cancer cell using techniques well known in the art.
2.2.6 Human Pancreatic Carcinoma Cell Line (BXPC-3);
The cells of 2.2.6, 2.2.7 cultured in RPMI 1640 medium containing 12% fetal bovine serum in the condition of 37° C., 5% CO2.
2.3.1 Cell seeding: Trypsinize the cell by 0.05% trypsin-EDTA and add RPMI 1640 medium (DMEM or 5A) containing 12% calf serum. Count the number, then dilute to 1.67×10^4/ml. Add 180 ul/well to the 96 well plate (3000 cells/well).
2.3.2 Culture: cells are incubated for 24 hours at 37° C. under 5% CO2.
2.3.3 Preliminary screening: The compounds are firstly diluted to 0.1 mol/L with DMSO, and then diluted to three concentrations of 10^−5 mol/L, 10^−6 mol/L and 10^−7 mol/L. Add 20 ul test compounds to the 96 well plate and incubate for 72 hours. Each group has three parallel wells and all experiments repeat three times. Each inhibition ratio is calculated, then an average value of three times is taken as the measured value. 2.3.4 Staining 2.3.4.1 Attached cell: add 20 ul/well MTT to the 96-well plates; incubate for 4 hours in the incubator. Pour out the culture medium in the well and add 100 ul/well DMSO. Shake the plate for 5 min. 2.3.4.2 Suspension cell: add 20 ul/well MTT to the 96-well plates; incubate for 4 hours in the incubator. Add 50 ul/well 20% SDS and incubate for overnight in the incubator. 2.3.5 Reading the plates: read the absorbance A570-A630 with the Infinite M200 microtiter plate reader. Calculate the inhibition ratio of the test compounds. […] Dilute these compounds to ten concentrations: 10^−5 mol/L, 0.5×10^−5 mol/L, 10^−6 mol/L, 0.8×10^−6 mol/L, 0.6×10^−6 mol/L, 0.4×10^−6 mol/L, 0.2×10^−6 mol/L, 10^−7 mol/L, 0.8×10^−7 mol/L and 0.4×10^−7 mol/L. Add 20 ul test compound solution to the 96 well plate and incubate for 48 hours. Each group has three parallel wells and all experiments repeat for three times. Read the plates and calculate the inhibition ratio according to the preliminary screening method. 2.3.7 Calculate the Inhibition Ratio of Cell Proliferation and the IC50
According to the inhibition ratio of cell proliferation at the different concentrations of the compound, inhibition ratio of 50% of the test compound is calculated through the logarithm of the concentration of the compound with the Logit [I] linear regression, and an average value of three times is taken as the measured value of a sample.

Structure (SMILES) | IC50 [nM] | inhibition at 10 µM [%]
Cc1[nH]c2c(c1C(=O)NCCO)CCC/C2=C1/C(=O)Nc2ccc(F)cc21 [I-9, N-(2-hydroxyethyl)-2-methyl-7-[1,2-dihydro-5-fluoro-2-oxo-3H-indol-(Z)-3-ylidene]-4,5,6,7-tetrahydro-1H-indole-3-carboxamide] | – | 63.7
Cc1[nH]c2c(c1C(=O)NCC(O)CN1CCCC1)CCC/C2=C1/C(=O)Nc2ccccc21 (centres unmarked) [I-70, N-(2-hydroxy-3-(pyrrolidin-1-yl)propyl)-2-methyl-7-[1,2-dihydro-2-oxo-3H-indol-(Z)-3-ylidene]-4,5,6,7-tetrahydro-1H-indole-3-carboxamide] | 970 | 98.7
Cc1[nH]c2c(c1C(=O)NCC(O)CN1CCCCC1)CCC/C2=C1/C(=O)Nc2ccc(F)cc21 (centres unmarked) [I-74, N-(2-hydroxy-3-(piperidin-1-yl)propyl)-2-methyl-7-[1,2-dihydro-5-fluoro-2-oxo-3H-indol-(Z)-3-ylidene]-4,5,6,7-tetrahydro-1H-indole-3-carboxamide] | 240 | 32.1
Cc1[nH]c2c(c1C(=O)N1CCN(C)CC1)CCC/C2=C1/C(=O)Nc2ccc(F)cc21 [I-14, 2-methyl-3-(4-methylpiperazine-1-carbonyl)-7-[1,2-dihydro-5-fluoro-2-oxo-3H-indol-(Z)-3-ylidene]-4,5,6,7-tetrahydro-1H-indole] | – | 68.3
Cc1[nH]c2c(c1C(=O)NCC(O)CN1CCCCC1)CCC/C2=C1/C(=O)Nc2ccccc21 (centres unmarked) [I-73, N-(2-hydroxy-3-(piperidin-1-yl)propyl)-2-methyl-7-[1,2-dihydro-2-oxo-3H-indol-(Z)-3-ylidene]-4,5,6,7-tetrahydro-1H-indole-3-carboxamide] | 1240 | 90.2
Cc1[nH]c2c(c1C(=O)NCC(O)CN1CCN(C)CC1)CCC/C2=C1/C(=O)Nc2ccc(F)cc21 (centres unmarked) [I-77, N-[2-hydroxy-3-(4-methylpiperazin-1-yl)propyl]-2-methyl-7-[1,2-dihydro-5-fluoro-2-oxo-3H-indol-(Z)-3-ylidene]-4,5,6,7-tetrahydro-1H-indole-3-carboxamide] | 8700 | 45.9
Cc1[nH]c2c(c1C(=O)NCC(O)CN1CCOCC1)CCC/C2=C1/C(=O)Nc2ccc(F)cc21 (centres unmarked) [I-68, N-(2-hydroxy-3-morpholinopropyl)-2-methyl-7-[1,2-dihydro-5-fluoro-2-oxo-3H-indol-(Z)-3-ylidene]-4,5,6,7-tetrahydro-1H-indole-3-carboxamide] | 6490 | 60.7
CCN(CC)CCNC(=O)c1c(C)[nH]c2c1CCC/C2=C1/C(=O)Nc2ccc(C)cc21 [I-4, N-(2-(diethylamino)ethyl)-2-methyl-7-[1,2-dihydro-5-methyl-2-oxo-3H-indol-(Z)-3-ylidene]-4,5,6,7-tetrahydro-1H-indole-3-carboxamide] | – | 78.4

Now from value to compound, other results behind:

IC50 [nM] | Structure (SMILES) | inhibition at 10 µM [%]
3430 | Cc1[nH]c2c(c1C(=O)NCCCN(C)C)CCC/C2=C1/C(=O)Nc2ccc(Cl)cc21 [I-7, N-(3-(dimethylamino)propyl)-2-methyl-7-[1,2-dihydro-5-chloro-2-oxo-3H-indol-(Z)-3-ylidene]-4,5,6,7-tetrahydro-1H-indole-3-carboxamide] | 69.5
520 | CCN(CC)CCNC(=O)c1c(C)[nH]c2c1CCC/C2=C1/C(=O)Nc2ccc(F)cc21 [I-2, N-(2-(diethylamino)ethyl)-2-methyl-7-[1,2-dihydro-5-fluoro-2-oxo-3H-indol-(Z)-3-ylidene]-4,5,6,7-tetrahydro-1H-indole-3-carboxamide] | 79.4
1950 | CCN(CC)CCNC(=O)c1c(C)[nH]c2c1CCC/C2=C1/C(=O)Nc2ccc(Cl)cc21 [I-3, N-(2-(diethylamino)ethyl)-2-methyl-7-[1,2-dihydro-5-chloro-2-oxo-3H-indol-(Z)-3-ylidene]-4,5,6,7-tetrahydro-1H-indole-3-carboxamide] | 96
1170 | Cc1[nH]c2c(c1C(=O)NCCO)CCC/C2=C1/C(=O)Nc2ccccc21 [I-8, N-(2-hydroxyethyl)-2-methyl-7-[1,2-dihydro-2-oxo-3H-indol-(Z)-3-ylidene]-4,5,6,7-tetrahydro-1H-indole-3-carboxamide] | 74.9
2730 | Cc1[nH]c2c(c1C(=O)NCC(O)CN1CCCC1)CCC/C2=C1/C(=O)Nc2ccc(F)cc21 (centres unmarked) [I-71, N-(2-hydroxy-3-(pyrrolidin-1-yl)propyl)-2-methyl-7-[1,2-dihydro-5-fluoro-2-oxo-3H-indol-(Z)-3-ylidene]-4,5,6,7-tetrahydro-1H-indole-3-carboxamide] | 98.9
5990 | Cc1[nH]c2c(c1C(=O)NCCN(C)C)CCC/C2=C1/C(=O)Nc2ccc(F)cc21 [I-6, N-(2-(dimethylamino)ethyl)-2-methyl-7-[1,2-dihydro-5-fluoro-2-oxo-3H-indol-(Z)-3-ylidene]-4,5,6,7-tetrahydro-1H-indole-3-carboxamide] | 64.9
520 | CCN(CC)CCNC(=O)c1c(C)[nH]c2c1CCC/C2=C1/C(=O)Nc2ccccc21 [I-5, N-(2-(diethylamino)ethyl)-2-methyl-7-[1,2-dihydro-2-oxo-3H-indol-(Z)-3-ylidene]-4,5,6,7-tetrahydro-1H-indole-3-carboxamide] | 89.4
1160 | CCN(CC)CC(O)CNC(=O)c1c(C)[nH]c2c1CCC/C2=C1/C(=O)Nc2ccccc21 (centres unmarked) [I-63, N-(3-(diethylamino)-2-hydroxypropyl)-2-methyl-7-[1,2-dihydro-2-oxo-3H-indol-(Z)-3-ylidene]-4,5,6,7-tetrahydro-1H-indole-3-carboxamide] | 97.3

From patent US8084621B2, “3-Pyrrolo[b]cyclohexylene-2-dihydroindolinone derivatives and uses thereof” (Jiangsu Simcere Pharmaceutical R&D Co. Ltd., priority 2006, dated 2011)
